Experimental data taken from patent US20230348426A1, “OXOPYRROLIDINE FPR2 AGONISTS” (Bristol-Myers Squibb Company, priority 2020, published 2023).

Experiments:
human FPR2 = human FPR2 (Homo sapiens (Human), UniProt P25090); test: FPR2 cyclic adenosine monophosphate (cAMP) assay; format: cell-based; conditions: CHO cells overexpressing human FPR2; forskolin 5 µM; inhibition of cAMP production; read-out: hFPR2 cAMP2 EC50
Description: (§1) N-formyl peptide receptors (FPRs) are a family of chemo attractant receptors that facilitate leukocyte response during inflammation. FPRs belong to the seven-transmembrane G protein-coupled receptor superfamily and are linked to inhibitory G-proteins (Gi). Three family members (FPR1, FPR2 and FPR3) have been identified in humans and are predominantly found in myeloid cells with varied distribution and have also been reported in multiple organs and tissues. After agonist binding, the FPRs activate a multitude of physiological pathways, such as intra cellular signaling transduction, Ca^2+ mobilization and transcription. The family interacts with a diverse set of ligands that includes proteins, polypeptides and fatty acid metabolites which activate both pro-inflammatory and pro-resolution downstream responses. FPR2 and FPR1 Cyclic Adenosine Monophosphate (cAMP) Assays were used to measure the activity of the compounds in this patent.
(§2) FPR2 and FPR1 Cyclic Adenosine Monophosphate (cAMP) Assays. A mixture of forskolin (5 µM final for FPR2 or 10 µM final for FPR1) and IBMX (200 µM final) were added to 384-well Proxiplates (Perkin-Elmer) pre-dotted with test compounds in DMSO (1% final) at final concentrations in the range of 0.020 nM to 100 µM. Chinese Hamster Ovary cells (CHO) overexpressing human FPR1 or human FPR2 receptors were cultured in F-12 (Ham’s) medium supplemented with 10% qualified FBS, 250 µg/ml zeocin and 300 µg/ml hygromycin (Life Technologies). Reactions were initiated by adding 2,000 human FPR2 cells per well or 4,000 human FPR1 cells per well in Dulbecco’s PBS (with calcium and magnesium) (Life Technologies) supplemented with 0.1% BSA (Perkin-Elmer). The reaction mixtures were incubated for 30 min at room temperature. The level of intracellular cAMP was determined using the HTRF HiRange cAMP assay reagent kit (Cisbio) according to manufacturer’s instruction. Solutions of cryptate conjugated anti-cAMP and d2 flurorophore-labelled cAMP were made in a supplied lysis buffer separately. Upon completion of the reaction, the cells were lysed with equal volume of the d2-cAMP solution and anti-cAMP solution. After a 1-h room temperature incubation, time-resolved fluorescence intensity was measured using the Envision (Perkin-Elmer) at 400 nm excitation and dual emission at 590 nm and 665 nm. A calibration curve was constructed with an external cAMP standard at concentrations ranging from 1 µM to 0.1 pM by plotting the fluorescent intensity ratio from 665 nm emission to the intensity from the 590 nm emission against cAMP concentrations. The potency and activity of a compound to inhibit cAMP production was then determined by fitting to a 4-parametric logistic equation from a plot of cAMP level versus compound concentrations.

human FPR1 = human FPR1 (Homo sapiens (Human), UniProt P21462); test: FPR1 cyclic adenosine monophosphate (cAMP) assay; format: cell-based; conditions: CHO cells overexpressing human FPR1; forskolin 10 µM; inhibition of cAMP production; read-out: hFPR1 cAMP EC50
Description: as §1
as §2, with “After a 1-h room temperature incubation, time-resolved fluorescence intensity was measured using the Envision (Perkin-Elmer) at 400 nm excitation and dual emission at 590 nm and 665 nm. A calibration curve was constructed with an external cAMP standard at concentrations ranging from 1 µM to 0.1 pM by plotting the fluorescent intensity ratio from 665 nm emission to the intensity from the 590 nm emission against cAMP concentrations.” left out

Chain of human FPR1 (P21462 whole entry): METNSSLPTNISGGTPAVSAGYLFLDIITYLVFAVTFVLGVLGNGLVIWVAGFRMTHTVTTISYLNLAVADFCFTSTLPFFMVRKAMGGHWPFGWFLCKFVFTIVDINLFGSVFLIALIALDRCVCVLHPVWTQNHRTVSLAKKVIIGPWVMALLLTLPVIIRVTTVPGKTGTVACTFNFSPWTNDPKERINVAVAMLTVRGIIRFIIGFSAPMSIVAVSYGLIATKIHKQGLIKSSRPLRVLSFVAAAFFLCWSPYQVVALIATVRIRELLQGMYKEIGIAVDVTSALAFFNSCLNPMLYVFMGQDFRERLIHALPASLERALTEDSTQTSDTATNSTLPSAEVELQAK
Chain of human FPR2 (P25090 whole entry): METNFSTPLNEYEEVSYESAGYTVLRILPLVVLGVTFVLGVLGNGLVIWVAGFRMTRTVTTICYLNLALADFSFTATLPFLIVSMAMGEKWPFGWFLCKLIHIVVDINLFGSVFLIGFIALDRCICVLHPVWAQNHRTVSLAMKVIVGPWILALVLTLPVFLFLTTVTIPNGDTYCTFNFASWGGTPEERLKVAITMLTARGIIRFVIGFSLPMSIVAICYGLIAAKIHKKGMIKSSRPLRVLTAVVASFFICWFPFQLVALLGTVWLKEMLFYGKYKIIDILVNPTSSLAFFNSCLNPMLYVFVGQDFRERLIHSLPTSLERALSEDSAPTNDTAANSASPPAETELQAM

## COCC(CN)n1cccc(N2C[C@@H](c3c(F)cc(OC)cc3F)[C@H](NC(=O)c3ccc(OC(F)(F)F)cc3)C2=O)c1=O (stereo partly shown) [Example 78]
Human FPR2
  EC50: 2 nM
Human FPR1
  EC50: 5.2 nM

## CCn1cccc(N2C(=O)[C@@H](NC(=O)c3ccc(OC(F)F)cc3)[C@H](c3c(F)cc(OC)cc3F)[C@@H]2C)c1=O [Example 80]
Human FPR2
  EC50: 2.1 nM
Human FPR1
  EC50: 130 nM

## COCCn1cccc(N2C[C@@H](c3ccc(OC)cc3F)[C@H](NC(=O)c3ccc(OC(F)F)cc3)C2=O)c1=O [Example 81]
Human FPR2
  EC50: 2.2 nM
Human FPR1
  EC50: 2.7 nM

## CCn1cccc(N2C[C@@H](c3ccc(OC)cc3F)[C@H](NC(=O)c3ccc(OC(F)(F)F)cc3)C2=O)c1=O [Example 82]
Human FPR2
  EC50: 2.2 nM
Human FPR1
  EC50: 5.3 nM

## CCn1cccc(N2C[C@@H](c3ccc(OC)cc3F)[C@H](NC(=O)c3ccc(OC(F)F)cc3)C2=O)c1=O [Example 83]
Human FPR2
  EC50: 2.2 nM
Human FPR1
  EC50: 7.6 nM

## COc1cc(F)c([C@@H]2CN(c3nc(NC4CCOC4)ccc3F)C(=O)[C@H]2NC(=O)c2ccc(OC(F)(F)F)cc2)c(F)c1 (stereo partly shown) [Example 84]
Human FPR2
  EC50: 2.3 nM
Human FPR1
  EC50: 120 nM

## COc1cc(F)c([C@@H]2CN(c3cccn(CCN(C)C)c3=O)C(=O)[C@H]2NC(=O)c2ccc(OC(F)(F)F)cc2)c(F)c1 [Example 85]
Human FPR2
  EC50: 2.3 nM
Human FPR1
  EC50: 160 nM

## COc1cc(F)c([C@@H]2CN(c3c(C)ccn(CC(F)F)c3=O)C(=O)[C@H]2NC(=O)c2ccc(OC(F)(F)F)cc2)c(F)c1 [Example 86]
Human FPR2
  EC50: 2.3 nM
Human FPR1
  EC50: 4.1 nM

## COc1cc(F)c([C@@H]2CN(c3ccc[nH]c3=O)C(=O)[C@H]2NC(=O)c2ccc(Cl)cc2)c(F)c1 [Example 87]
Human FPR2
  EC50: 2.3 nM
Human FPR1
  EC50: 750 nM

## COc1cc(F)c([C@@H]2CN(c3cccn(CC(C)O)c3=O)C(=O)[C@H]2NC(=O)c2ccc(OC(F)(F)F)cc2)c(F)c1 (stereo partly shown) [Example 89]
Human FPR2
  EC50: 2.4 nM
Human FPR1
  EC50: 45 nM

## COc1cc(F)c([C@@H]2CN(c3c(C)ccn(CC(F)F)c3=O)C(=O)[C@H]2NC(=O)c2ccc(OC(F)F)cc2)c(F)c1 [Example 90]
Human FPR2
  EC50: 2.5 nM
Human FPR1
  EC50: 3.5 nM

## COc1ccc([C@@H]2CN(c3cccn(CC(F)F)c3=O)C(=O)[C@H]2NC(=O)c2ccc(OC(F)F)cc2)cc1 [Example 91]
Human FPR2
  EC50: 2.6 nM
Human FPR1
  EC50: 16 nM

## COCC(C(=O)N(C)C)n1cccc(N2C[C@@H](c3c(F)cc(OC)cc3F)[C@H](NC(=O)c3ccc(OC(F)F)cc3)C2=O)c1=O (stereo partly shown) [Example 92]
Human FPR2
  EC50: 2.6 nM
Human FPR1
  EC50: 3.6 nM

## CCn1cccc(N2C(=O)[C@@H](NC(=O)c3ccc(OC(F)(F)F)cc3)[C@H](c3c(F)cc(OC)cc3F)[C@@H]2C)c1=O [Example 93]
Human FPR2
  EC50: 2.6 nM
Human FPR1
  EC50: 68 nM

## COc1cc(F)c([C@@H]2CN(c3cccn(C(F)F)c3=O)C(=O)[C@H]2NC(=O)c2ccc(Cl)cc2)c(F)c1 [Example 94]
Human FPR2
  EC50: 2.7 nM
Human FPR1
  EC50: 95 nM

## COc1cc(F)c([C@@H]2CN(c3ccc[nH]c3=O)C(=O)[C@H]2NC(=O)c2ccc(OC(F)F)cc2)c(F)c1 [Example 95]
Human FPR2
  EC50: 2.7 nM
Human FPR1
  EC50: 160 nM

## COc1cc(F)c([C@@H]2CN(c3cccn(CC4CC(F)(F)C4)c3=O)C(=O)[C@H]2NC(=O)c2ccc(OC(F)F)cc2)c(F)c1 [Example 96]
Human FPR2
  EC50: 2.7 nM
Human FPR1
  EC50: 46 nM

## COc1cc(F)c([C@@H]2CN(c3cccn(CCN(C)C)c3=O)C(=O)[C@H]2NC(=O)c2ccc(OC(F)F)cc2)c(F)c1 [Example 97]
Human FPR2
  EC50: 2.7 nM
Human FPR1
  EC50: 350 nM

## CCn1cccc(N2C[C@@H](c3c(F)cc(OC)cc3F)[C@H](NC(=O)c3ccc(Cl)cc3)C2=O)c1=O [Example 98]
Human FPR2
  EC50: 2.7 nM
Human FPR1
  EC50: 43 nM

## COc1cc(F)c([C@@H]2CN(c3cccn(CCN4CCOCC4)c3=O)C(=O)[C@H]2NC(=O)c2ccc(OC(F)F)cc2)c(F)c1 [Example 99]
Human FPR2
  EC50: 2.7 nM
Human FPR1
  EC50: 330 nM

## COCCn1cccc(N2C(=O)[C@@H](NC(=O)c3ccc(OC(F)(F)F)cc3)[C@H](c3c(F)cc(OC)cc3F)[C@@H]2C)c1=O [Example 100]
Human FPR2
  EC50: 2.7 nM
Human FPR1
  EC50: 22 nM

## O=C(N[C@@H]1C(=O)N(c2cccn(CCO)c2=O)C[C@H]1c1ccc(Cl)cc1)c1ccc(OC(F)(F)F)cc1 [Example 102]
Human FPR2
  EC50: 2.8 nM
Human FPR1
  EC50: 4.7 nM

## COc1cc(F)c([C@@H]2CN(c3cccn(CC(C)OC)c3=O)C(=O)[C@H]2NC(=O)c2ccc(OC(F)(F)F)cc2)c(F)c1 (stereo partly shown) [Example 103]
Human FPR2
  EC50: 2.8 nM
Human FPR1
  EC50: 1.9 nM

## COc1cc(F)c([C@@H]2CN(c3cccn(CC(C)O)c3=O)C(=O)[C@H]2NC(=O)c2ccc(OC(F)F)cc2)c(F)c1 (stereo partly shown) [Example 104]
Human FPR2
  EC50: 2.9 nM
Human FPR1
  EC50: 120 nM

## COCCn1cccc(N2C(=O)[C@@H](NC(=O)c3ccc(OC(F)F)cc3)[C@H](c3c(F)cc(OC)cc3F)[C@@H]2C)c1=O [Example 105]
Human FPR2
  EC50: 2.9 nM
Human FPR1
  EC50: 65 nM

## COc1cc(NCCO)nc(N2C[C@@H](c3c(F)cc(OC)cc3F)[C@H](NC(=O)c3ccc(Cl)cc3)C2=O)c1 [Example 106]
Human FPR2
  EC50: 2.9 nM
Human FPR1
  EC50: 870 nM

## COCCn1cccc(N2C[C@@H](c3ccc(Cl)cc3)[C@H](NC(=O)c3ccc(OC(F)(F)F)cc3)C2=O)c1=O [Example 107]
Human FPR2
  EC50: 2.9 nM
Human FPR1
  EC50: 5.7 nM

## COc1ccc([C@@H]2CN(c3c(C)ccn(CCO)c3=O)C(=O)[C@H]2NC(=O)c2ccc(OC(F)(F)F)cc2)cc1 [Example 108]
Human FPR2
  EC50: 2.9 nM
Human FPR1
  EC50: 0.4 nM

## COc1cc(F)c([C@@H]2CN(c3nccc(N4C[C@@H](C)N(C)[C@@H](C)C4)c3C(F)(F)F)C(=O)[C@H]2NC(=O)c2ccc(OC(F)F)cc2)c(F)c1 [Example 109]
Human FPR2
  EC50: 2.9 nM
Human FPR1
  EC50: 500 nM

## O=C(N[C@@H]1C(=O)N(c2cccn(CCO)c2=O)C[C@H]1c1ccc(Cl)cc1)c1ccc(OC(F)F)cc1 [Example 110]
Human FPR2
  EC50: 2.9 nM
Human FPR1
  EC50: 20 nM

## COc1cc(F)c([C@@H]2CN(c3nc(C)ccc3F)C(=O)[C@H]2NC(=O)c2ccc(Cl)cc2)c(F)c1 [Example 111]
Human FPR2
  EC50: 3 nM
Human FPR1
  EC50: 1100 nM

## COCC(CO)n1ccc(C)c(N2C[C@@H](c3c(F)cc(OC)cc3F)[C@H](NC(=O)c3ccc(OC(F)F)cc3)C2=O)c1=O (stereo partly shown) [Example 112]
Human FPR2
  EC50: 3 nM
Human FPR1
  EC50: 2.8 nM

## COCCn1cccc(N2C[C@@H](c3c(F)cc(OC)cc3F)[C@H](NC(=O)c3ccc(OC(F)F)cc3)C2=O)c1=O [Example 113]
Human FPR2
  EC50: 3 nM
Human FPR1
  EC50: 16 nM

## COc1cc(F)c([C@@H]2CN(c3nc(N(C)C(C)=O)ccc3F)C(=O)[C@H]2NC(=O)c2ccc(OC(F)(F)F)cc2)c(F)c1 [Example 114]
Human FPR2
  EC50: 3 nM
Human FPR1
  EC50: 5.9 nM

## COc1cc(F)c([C@@H]2CN(c3c(C)ccn(CCO)c3=O)C(=O)[C@H]2NC(=O)c2ccc(OC(F)(F)F)cc2)c(F)c1 [Example 115]
Human FPR2
  EC50: 3.1 nM
Human FPR1
  EC50: 2.4 nM

## COc1cc(F)c([C@@H]2CN(c3cccn(C4CC4)c3=O)C(=O)[C@H]2NC(=O)c2ccc(C(F)(F)F)cc2)c(F)c1 [Example 116]
Human FPR2
  EC50: 3.1 nM
Human FPR1
  EC50: 34 nM

## COc1cc(F)c([C@@H]2CN(c3nc(N4CC(F)(F)C4)ccc3F)C(=O)[C@H]2NC(=O)c2ccc(OC(F)F)cc2)c(F)c1 [Example 117]
Human FPR2
  EC50: 3.1 nM
Human FPR1
  EC50: 210 nM

## COCC(CO)n1cccc(N2C[C@@H](c3ccc(Cl)cc3)[C@H](NC(=O)c3ccc(OC(F)F)cc3)C2=O)c1=O (stereo partly shown) [Example 118]
Human FPR2
  EC50: 3.1 nM
Human FPR1
  EC50: 4.1 nM
